Assay: Caco-2 permeability assay
Type: in vitro ADME
Conditions: human, Caco-2, pH 7.4

Compound CC(=O)OC[C@H]1O[C@@H](OCC[N+](C)(C)C2CC2)[C@H](OC(C)=O)[C@@H](OC(C)=O)[C@@H]1OC(C)=O.[I-] [Compound 80, N,N-dimethyl-N-(2-{[(3R,4S,5R,6R)-3,4,5-tris(acetyloxy)-6-[(acetyloxy)methyl]oxan-2-yl]oxy}ethyl)cyclopropanaminium Iodide] has a Papp A→B at 2 h, 1 µM of 0.28 ×10⁻⁶ cm/s and a Papp B→A at 2 h, 1 µM of 0.313 ×10⁻⁶ cm/s.

Reference: patent US20220041641A1, “QUATERNARY AMMONIUM SALTS AS INHIBITORS OF TRIMETHYLAMINE PRODUCTION” (Senda Biosciences, Inc., priority 2018, published 2022)
